Reference: PubChem BioAssay AID248 (DTP/NCI, 2004)
Toxic doses and inconclusive results are not listed. Rule as the data show it: active = T/C of 150% or more; inactive = T/C below 125%.

Test system: L1210 leukemia ip in BDF1 mice, survival T/C
Experiment: NCI In Vivo Anticancer Drug Screen. Data for tumor model L1210 Leukemia (intraperitoneal) in B6D2F1 (BDF1) mice
Settings: higher = longer survival
Procedure, shortened: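 Tumor was transplanted into mice, which were then dosed with test compound or vehicle alone. Survival was recorded for each group, and the treated figure was expressed relative to the control figure.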

[1] = endpoint: mean survival time, dose: 50.0 mg/kg/injection, schedule: Q01DX001 (ip), vehicle: saline
[2] = endpoint: mean survival time, dose: 100.0 mg/kg/injection, schedule: Q01DX001 (ip), vehicle: saline
[3] = endpoint: mean survival time, dose: 200.0 mg/kg/injection, schedule: Q01DX001 (ip), vehicle: saline
[4] = endpoint: mean survival time, dose: 100.0 mg/kg/injection, schedule: Q01DX009 (ip), vehicle: Klucel (hydroxypropylcellulose) (HPC)
[5] = endpoint: mean survival time, dose: 100.0 mg/kg/injection, schedule: Q04DX003 (ip), vehicle: Klucel (hydroxypropylcellulose) (HPC)
[6] = endpoint: mean survival time, dose: 200.0 mg/kg/injection, schedule: Q01DX009 (ip), vehicle: Klucel (hydroxypropylcellulose) (HPC)
[7] = endpoint: mean survival time, dose: 200.0 mg/kg/injection, schedule: Q04DX003 (ip), vehicle: Klucel (hydroxypropylcellulose) (HPC)
[8] = endpoint: mean survival time, dose: 400.0 mg/kg/injection, schedule: Q04DX003 (ip), vehicle: Klucel (hydroxypropylcellulose) (HPC)
[9] = endpoint: mean survival time, dose: 400.0 mg/kg/injection, schedule: Q01DX009 (ip), vehicle: Klucel (hydroxypropylcellulose) (HPC)
[10] = endpoint: mean survival time, dose: 100.0 mg/kg/injection, schedule: Q04DX003 (ip), vehicle: saline with Tween-80
[11] = endpoint: mean survival time, dose: 100.0 mg/kg/injection, schedule: Q01DX001 (ip), vehicle: carboxymethylcellulose (CMC)
[12] = endpoint: mean survival time, dose: 200.0 mg/kg/injection, schedule: Q01DX001 (ip), vehicle: carboxymethylcellulose (CMC)
[13] = endpoint: mean survival time, dose: 400.0 mg/kg/injection, schedule: Q01DX001 (ip), vehicle: carboxymethylcellulose (CMC)
[14] = endpoint: mean survival time, dose: 200.0 mg/kg/injection, schedule: Q04DX003 (ip), vehicle: saline with Tween-80
[15] = endpoint: mean survival time, dose: 400.0 mg/kg/injection, schedule: Q04DX003 (ip), vehicle: saline with Tween-80
[16] = endpoint: mean survival time, dose: 50.0 mg/kg/injection, schedule: Q01DX001 (ip), vehicle: other

Measured: T/C

COC(=O)C1CCN(Cc2ccccc2)CC1=O (centres undefined)
inactive: [1] 110 % of control | [2] 104 % of control | [3] 104 % of control | endpoint: mean survival time, dose: 400.0 mg/kg/injection, schedule: Q01DX001 (ip), vehicle: saline 104 % of control

COc1ccc(C(=O)NC(=S)Nc2ccccc2F)cc1
inactive: [4] 93 % of control | [5] 94 % of control | [6] 90 % of control | [7] 93 % of control | [8] 94 % of control

COC(=O)C(c1ccccc1)C(Br)C(=O)c1ccccc1 (centres undefined)
inactive: [4] 86 % of control | [5] 97 % of control | [6] 86 % of control | [7] 102 % of control | [9] 86 % of control | [8] 95 % of control

Cc1ccc2nc(Cl)cc(=O)n2c1
inactive: [1] 97 % of control | [2] 97 % of control | [3] 97 % of control

CSc1cc(-c2ccccc2)c2ccccc2[n+]1C
inactive: endpoint: mean survival time, dose: 12.5 mg/kg/injection, schedule: Q04DX003 (ip), vehicle: saline with Tween-80 112 % of control | endpoint: mean survival time, dose: 25.0 mg/kg/injection, schedule: Q01DX009 (ip), vehicle: saline with Tween-80 116 % of control | endpoint: mean survival time, dose: 25.0 mg/kg/injection, schedule: Q04DX003 (ip), vehicle: saline with Tween-80 112 % of control | endpoint: mean survival time, dose: 50.0 mg/kg/injection, schedule: Q04DX003 (ip), vehicle: saline with Tween-80 90 % of control | [10] 94 % of control

OCC1OC(n2cc(Br)c3c(=S)nc[nH]c32)C(O)C1O (centres undefined)
inactive: [11] 104 % of control | [12] 110 % of control | [13] 106 % of control

O=[N+]([O-])C1(CO)COC(c2ccccc2)OC1 (centres undefined)
inactive: endpoint: mean survival time, dose: 100.0 mg/kg/injection, schedule: Q01DX009 (ip), vehicle: water 91 % of control | [10] 111 % of control | endpoint: mean survival time, dose: 200.0 mg/kg/injection, schedule: Q01DX009 (ip), vehicle: water 98 % of control | [14] 108 % of control | endpoint: mean survival time, dose: 400.0 mg/kg/injection, schedule: Q01DX009 (ip), vehicle: water 92 % of control | [15] 95 % of control

CC1(C)C2(C)CC12C (centres undefined)
inactive: endpoint: mean survival time, dose: 2.5 mg/kg/injection, schedule: Q01DX009 (ip), vehicle: saline 92 % of control | endpoint: mean survival time, dose: 5.0 mg/kg/injection, schedule: Q01DX009 (ip), vehicle: saline 91 % of control | endpoint: mean survival time, dose: 10.0 mg/kg/injection, schedule: Q01DX009 (ip), vehicle: saline 87 % of control

O=S1(=O)CCC(N(N=C2CCCCC2)c2ccccc2)C1 (centres undefined)
inactive: endpoint: mean survival time, dose: 50.0 mg/kg/injection, schedule: Q01DX009 (ip), vehicle: Klucel (hydroxypropylcellulose) (HPC) 95 % of control | [4] 98 % of control | [6] 106 % of control | [9] 95 % of control

CC(Cl)CN(C)c1ccc2ccccc2c1 (centres undefined)
inactive: endpoint: median survival time, dose: 100.0 mg/kg/injection, schedule: Q01DX009 (ip), vehicle: Klucel (hydroxypropylcellulose) (HPC) 97 % of control | endpoint: median survival time, dose: 200.0 mg/kg/injection, schedule: Q01DX009 (ip), vehicle: Klucel (hydroxypropylcellulose) (HPC) 87 % of control

CCC(=O)NCC(=O)O
inactive: endpoint: mean survival time, dose: 6.25 mg/kg/injection, schedule: Q01DX009 (ip), vehicle: saline 103 % of control | endpoint: mean survival time, dose: 6.25 mg/kg/injection, schedule: Q04DX003 (ip), vehicle: saline 96 % of control | endpoint: mean survival time, dose: 12.5 mg/kg/injection, schedule: Q01DX009 (ip), vehicle: saline 95 % of control | endpoint: mean survival time, dose: 12.5 mg/kg/injection, schedule: Q04DX003 (ip), vehicle: saline 96 % of control | endpoint: mean survival time, dose: 25.0 mg/kg/injection, schedule: Q01DX009 (ip), vehicle: saline 92 % of control | endpoint: mean survival time, dose: 25.0 mg/kg/injection, schedule: Q04DX003 (ip), vehicle: saline 100 % of control

CC1(C)CCC2(CC1)CC(=O)OC2=O
inactive: [10] 95 % of control | [14] 97 % of control | [15] 98 % of control

O=C1c2ccccc2-c2ccc(Cl)cc21
inactive: [11] 96 % of control | [12] 96 % of control | [13] 96 % of control

C#CC(O)(c1ccccc1)c1ccc(N2CCOCC2)cc1 (centres undefined)
inactive: [5] 96 % of control | [7] 96 % of control | [8] 96 % of control

CCOC(=O)CN(c1ccccc1-c1ccccc1)S(=O)(=O)c1ccc(C)cc1
inactive: [16] 92 % of control | endpoint: mean survival time, dose: 100.0 mg/kg/injection, schedule: Q01DX001 (ip), vehicle: other 89 % of control | endpoint: mean survival time, dose: 200.0 mg/kg/injection, schedule: Q01DX001 (ip), vehicle: other 101 % of control | endpoint: mean survival time, dose: 400.0 mg/kg/injection, schedule: Q01DX001 (ip), vehicle: other 101 % of control

O=C(N/N=C/c1ccc(O)cc1)c1ccccc1NC(=O)C1CC1
inactive: [4] 104 % of control | [6] 89 % of control | [9] 93 % of control

O=[N+]([O-])c1ccc(NS(=O)(=O)c2ccc(Cl)c(Cl)c2)cc1
inactive: endpoint: mean survival time, dose: 12.5 mg/kg/injection, schedule: Q01DX001 (ip), vehicle: other 92 % of control | endpoint: mean survival time, dose: 12.5 mg/kg/injection, schedule: Q01DX009 (ip), vehicle: gum acacia 101 % of control | endpoint: mean survival time, dose: 12.5 mg/kg/injection, schedule: Q04DX003 (ip), vehicle: other 95 % of control | endpoint: mean survival time, dose: 25.0 mg/kg/injection, schedule: Q01DX001 (ip), vehicle: other 97 % of control | endpoint: mean survival time, dose: 25.0 mg/kg/injection, schedule: Q01DX009 (ip), vehicle: gum acacia 91 % of control | endpoint: mean survival time, dose: 25.0 mg/kg/injection, schedule: Q04DX003 (ip), vehicle: other 94 % of control | [16] 97 % of control | endpoint: mean survival time, dose: 50.0 mg/kg/injection, schedule: Q04DX003 (ip), vehicle: other 94 % of control

CN1CCC/C1=N\c1nn[nH]n1
inactive: endpoint: mean survival time, dose: 100.0 mg/kg/injection, schedule: Q01DX001 (ip), vehicle: Klucel (hydroxypropylcellulose) (HPC) 106 % of control | endpoint: mean survival time, dose: 200.0 mg/kg/injection, schedule: Q01DX001 (ip), vehicle: Klucel (hydroxypropylcellulose) (HPC) 97 % of control | endpoint: mean survival time, dose: 400.0 mg/kg/injection, schedule: Q01DX001 (ip), vehicle: Klucel (hydroxypropylcellulose) (HPC) 93 % of control
